The results in this text go back to US6156541A (priority 1998, dated 2000).

Where a SMILES comes first, the peptide text is derived from it. [ ]: non-standard residue; d: D form. The star is where a group is joined. Sta = CC(C)C[C@H](N)[C@@H](O)CC(=O)O; Isovaleryl = CC(C)CC(=O)*

In this assay the test system is Lay2 L chain, human monoclonal antibody light chain (Bence Jones protein, kappa IIc subgroup) from a multiple myeloma patient. The class given is biochemical.

With `O=C(O)CN(CCN(CC(=O)O)CC(=O)O)CC(=O)O` [EDTA], the “Effect on Lay2-catalyzed gp120 hydrolysis” value is on record as “without effect”.

For `CC(C)CC(=O)N[C@H](C(=O)N[C@H](C(=O)N[C@@H](CC(C)C)[C@@H](O)CC(=O)N[C@@H](C)C(=O)N[C@@H](CC(C)C)[C@@H](O)CC(=O)O)C(C)C)C(C)C` [Pepstatin A] (Isovaleryl-VV[Sta]A[Sta]-OH), the “Effect on Lay2-catalyzed gp120 hydrolysis” value is listed as “without effect”. The result for `NC(=O)CI` [iodoacetamide] reads “without effect”.
